Like-named read-outs stand apart in the source and are kept apart here.
How the values were obtained:
BaF3 (EGFR Del19) = BaF3 (EGFR Del19) (Homo sapiens, UniProt P00533, cells depend on it, form not given); experiment: Cell proliferation IC50 assay (Cell Titer GLO), BaF3 D cells; type: cell-based, mouse; conditions: Table 7, 72 h
Protocol: (§1) IC50 of compounds in the present invention was determined by Cell Titer GLO reagent from Promega. The procedures are as follows:
(§2) Tumor cells were cultured in specified medium in an incubator at 37° C. and 5% CO2. The cells were passaged periodically. Cells at the logarithmic growth phase were collected for plating at a density of 2000-4000 cells/well. The next day, the compounds of the present invention were serially diluted and added to the cells, with DMSO being the negative control and the culture media without cells being the blank control. The plate was incubated in the incubator for 72 h. The cell viability assay was performed by adding the detection reagents to the cell culture media according to Cell Titer GLO reagent instructions and detecting luminescent signals on an EnVision microplate reader (PerkinElmer).
(§3) Inhibition of cell growth by the compounds of the present invention was plotted by Prism Graphpad software for statistically calculating the IC50 of the compound of the present invention.

DT = experiment: Cell proliferation IC50 assay (Cell Titer GLO), DT cells; type: cell-based; conditions: Mus musculus; Table 7; DT cells (BaF3 with EGFR mutant), 72 h
Protocol: as §1, §2, §3

BaF3 (EGFR Del19/C797S) = biological target: T1, BaF3 (EGFR Del19/C797S) (Homo sapiens, UniProt P00533, C797S, cells depend on it, form not given); experiment: Cell proliferation IC50 assay (Cell Titer GLO), BaF3 DC cells; type: cell-based, mouse; conditions: Table 7, 72 h
T1 construct: BaF3 (EGFR Del19/C797S)|DC|RPMI1640 + 10% FBS
In short: (§4)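 Each cell line, plated at 2000-4000 cells/well, received serially diluted compound for 72 h (37° C, 5% CO2) before luminescent ATP-based viability detection. IC50 values were derived from growth inhibition relative to DMSO-treated and cell-free blank wells.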

BaF3 (EGFR L858R/C797S) = BaF3 (EGFR L858R/C797S) (Homo sapiens, UniProt P00533, C797S/L858R, cells depend on it); experiment: Cell proliferation IC50 assay (Cell Titer GLO), BaF3 LC cells; type: cell-based, mouse; conditions: Table 7, 72 h
Protocol: as §1, §2, §3

BaF3 (EGFR L858R) = BaF3 (EGFR L858R) (Homo sapiens, UniProt P00533, L858R, cells depend on it); experiment: Cell proliferation IC50 assay (Cell Titer GLO), BaF3 L cells; type: cell-based, mouse; conditions: Table 7, 72 h
Protocol: as §1, §2, §3

LT = experiment: Cell proliferation IC50 assay (Cell Titer GLO), LT cells; type: cell-based; conditions: Mus musculus; Table 7; LT cells (BaF3 with EGFR mutant), 72 h
Protocol: as §1, §2, §3

[1] = test system: BaF3 (EGFR L858R/T790M/C797S); experiment: Cell proliferation IC50 assay (Cell Titer GLO), BaF3 LTC cells; type: cell-based; conditions: Mus musculus, Ba/F3 EGFR
In short: as §4

[2] = test system: BaF3 (EGFR Del19/T790M/C797S); experiment: Cell proliferation IC50 assay (Cell Titer GLO), BaF3 DTC cells; type: cell-based; conditions: Mus musculus, Ba/F3 EGFR-Del19/T790M/C797S
In short: as §4

BaF3 (EGFR WT) = experiment: Cell proliferation IC50 assay (Cell Titer GLO), BaF3 WT cells; type: cell-based; conditions: Mus musculus, Ba/F3 EGFR, 72 h
In short: as §4

BaF3 patent = experiment: Cell proliferation IC50 assay (Cell Titer GLO), BaF3 parental cells; type: cell-based; conditions: Mus musculus, Table 5, 10 ng/ml mIL3, 72 h
In short: as §4

A431 = experiment: Cell proliferation IC50 assay (Cell Titer GLO), A431 cells; type: cell-based; conditions: Homo sapiens, A-431, A431, 72 h, read-out: A431 IC50
In short: as §4

human EGFR-DTC = experiment: EGFR protein abundance assay (Western blotting), EGFR-DTC; type: cell-based; conditions: Ba/F3 cells expressing human EGFR-DTC, 24 h, Western blot
Protocol: (§5) Mouse Ba/F3 cells stably expressing human EGFR-DTC, EGFR-LTC, or EGFR-DC were transferred to Petri dishes with RPMI-1640 medium (Gibco, Product No. 11875093) containing 10% fetal bovine serum (FBS, Biological Industries, Product No. 04-001-1A) and 0.1% penicillin/streptomycin (P/S) and incubated in an aseptic incubator at 37° C., 95% relative humidity, and 5% CO2. Cells at the logarithmic growth phase were taken and seeded at a density of 50000 cells/well in 12-well plates (Corning, Product No. 3513) containing 1 mL of medium per well. After 24 h, the compounds disclosed herein with different concentrations were added to the wells at a final DMSO concentration of 0.1%. After 24 h, cells were lysed in SDS lysis buffer (1.45 g of SDS, 0.2 g of Tris base, 6 mL of glycerol, 20 mg of bromophenol blue, 310 mg DTT; brought to 40 mL with d2H2O), and the EGFR levels were detected and analyzed by Western Blotting (immunoblotting) using standard molecular biological techniques. Cell lysates were boiled at 95° C. for 8 min, mixed and centrifuged. The total cell proteins in the lysates were subjected to SDS-PAGE (GenScript, Product No. M00654), transferred to NC membranes (GE, Product No. 1060002) by blotting, incubated in a blocking buffer (TAKARA, Product No. T7131A) at room temperature for 60 min, and co-incubated overnight at 4° C. with the following primary antibodies: anti-EGFR (#4267S, 1:1000), anti-phoso-EGFR (#3777S, 1:1000), anti-GAPDH (#5174S, 1:10000), anti-Actin (#5125 S, 1:10000) (all purchased from Cell Signaling Technology). The samples were washed three times with TBST at room temperature, each for 10 min, and then incubated for 60 minutes in a blocking buffer containing a secondary antibody (#7074S, 1:10000, purchased from Cell Signaling Technology) at room temperature. The samples were washed three times with TBST at room temperature, each for 10 min. Chemiluminescent substrates were added, and an Azure c300 system was used for imaging.

human EGFR-LTC = biological target: T2, human EGFR-LTC (Homo sapiens, UniProt P00533, C797S/L858R/T790M); experiment: EGFR protein abundance assay (Western blotting), EGFR-LTC; type: cell-based; conditions: 24 h, Western blot; for DC50: Ba/F3 cells expressing human EGFR-LTC; for Dmax: BaF3, Ba/F3 cells expressing human EGFR-LTC
T2 construct: expressed in transfected cells
Protocol: as §5

human EGFR-DC = experiment: EGFR protein abundance assay (Western blotting), EGFR-DC; type: cell-based; conditions: Ba/F3 cells expressing human EGFR-DC, 24 h, Western blot
Protocol: as §5

T1 sequence (P00533 with tags, fused parts or gaps DEL746-750/C797S, form open): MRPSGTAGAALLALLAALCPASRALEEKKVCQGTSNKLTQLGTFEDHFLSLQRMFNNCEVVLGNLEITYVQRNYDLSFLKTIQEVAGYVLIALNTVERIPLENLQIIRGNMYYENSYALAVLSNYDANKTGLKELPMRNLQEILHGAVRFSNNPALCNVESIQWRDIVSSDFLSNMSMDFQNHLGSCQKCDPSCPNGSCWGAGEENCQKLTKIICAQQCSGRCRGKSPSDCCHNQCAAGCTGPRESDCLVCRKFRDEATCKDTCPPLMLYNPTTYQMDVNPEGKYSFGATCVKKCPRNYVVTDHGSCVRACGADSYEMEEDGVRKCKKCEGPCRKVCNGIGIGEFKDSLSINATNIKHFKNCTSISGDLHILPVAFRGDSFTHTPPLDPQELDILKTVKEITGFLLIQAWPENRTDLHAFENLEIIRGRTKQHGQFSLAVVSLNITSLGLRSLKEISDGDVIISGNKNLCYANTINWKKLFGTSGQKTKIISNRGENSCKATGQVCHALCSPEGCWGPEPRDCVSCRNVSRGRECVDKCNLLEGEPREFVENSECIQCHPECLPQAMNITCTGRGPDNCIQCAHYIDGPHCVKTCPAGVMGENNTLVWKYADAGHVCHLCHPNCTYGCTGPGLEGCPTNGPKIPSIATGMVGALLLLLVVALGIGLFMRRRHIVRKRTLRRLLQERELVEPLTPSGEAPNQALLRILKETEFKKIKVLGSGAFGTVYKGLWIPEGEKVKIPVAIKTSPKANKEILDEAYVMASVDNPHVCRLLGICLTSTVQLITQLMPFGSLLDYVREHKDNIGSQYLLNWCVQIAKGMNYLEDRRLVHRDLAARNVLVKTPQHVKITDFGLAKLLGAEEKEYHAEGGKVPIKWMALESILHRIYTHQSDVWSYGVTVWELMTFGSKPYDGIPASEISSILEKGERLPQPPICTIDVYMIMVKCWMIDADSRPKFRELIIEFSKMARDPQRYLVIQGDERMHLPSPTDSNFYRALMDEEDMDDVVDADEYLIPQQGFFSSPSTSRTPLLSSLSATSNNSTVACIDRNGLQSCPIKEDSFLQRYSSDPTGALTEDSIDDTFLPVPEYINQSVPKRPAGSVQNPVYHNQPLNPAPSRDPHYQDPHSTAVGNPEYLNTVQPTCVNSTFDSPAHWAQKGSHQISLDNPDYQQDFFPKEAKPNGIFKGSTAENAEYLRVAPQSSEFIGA
T2 sequence (P00533 25-1210 T790M/C797S/L858R): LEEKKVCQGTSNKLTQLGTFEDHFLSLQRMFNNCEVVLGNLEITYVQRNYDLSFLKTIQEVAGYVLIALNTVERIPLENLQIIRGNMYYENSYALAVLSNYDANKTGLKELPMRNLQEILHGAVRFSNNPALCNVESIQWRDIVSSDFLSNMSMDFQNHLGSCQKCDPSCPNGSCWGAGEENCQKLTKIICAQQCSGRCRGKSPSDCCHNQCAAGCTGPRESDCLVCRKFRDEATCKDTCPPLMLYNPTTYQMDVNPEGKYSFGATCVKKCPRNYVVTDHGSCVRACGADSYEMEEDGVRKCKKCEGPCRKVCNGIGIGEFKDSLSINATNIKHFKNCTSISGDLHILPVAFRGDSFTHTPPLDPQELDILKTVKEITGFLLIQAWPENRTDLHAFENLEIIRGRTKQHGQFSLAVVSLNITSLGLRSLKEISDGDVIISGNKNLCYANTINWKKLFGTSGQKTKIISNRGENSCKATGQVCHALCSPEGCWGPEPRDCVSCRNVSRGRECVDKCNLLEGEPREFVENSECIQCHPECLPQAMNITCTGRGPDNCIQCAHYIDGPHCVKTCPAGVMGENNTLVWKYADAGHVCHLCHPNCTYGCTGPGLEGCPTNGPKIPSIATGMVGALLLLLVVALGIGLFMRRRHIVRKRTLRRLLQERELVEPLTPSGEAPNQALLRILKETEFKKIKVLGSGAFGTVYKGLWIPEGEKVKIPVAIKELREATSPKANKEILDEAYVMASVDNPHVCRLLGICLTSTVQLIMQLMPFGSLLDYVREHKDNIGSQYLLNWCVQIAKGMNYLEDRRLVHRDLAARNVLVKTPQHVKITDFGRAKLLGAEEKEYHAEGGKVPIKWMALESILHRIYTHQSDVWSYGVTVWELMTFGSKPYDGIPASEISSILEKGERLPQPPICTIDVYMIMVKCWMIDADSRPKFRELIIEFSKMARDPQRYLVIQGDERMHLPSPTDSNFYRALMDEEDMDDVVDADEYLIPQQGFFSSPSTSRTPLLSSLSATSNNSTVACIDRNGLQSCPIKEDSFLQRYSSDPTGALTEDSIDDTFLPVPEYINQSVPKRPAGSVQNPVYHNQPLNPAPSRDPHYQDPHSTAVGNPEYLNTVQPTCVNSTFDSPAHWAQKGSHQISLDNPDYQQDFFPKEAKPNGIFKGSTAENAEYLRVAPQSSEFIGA
BaF3 (EGFR L858R), sequence (P00533 whole entry L858R): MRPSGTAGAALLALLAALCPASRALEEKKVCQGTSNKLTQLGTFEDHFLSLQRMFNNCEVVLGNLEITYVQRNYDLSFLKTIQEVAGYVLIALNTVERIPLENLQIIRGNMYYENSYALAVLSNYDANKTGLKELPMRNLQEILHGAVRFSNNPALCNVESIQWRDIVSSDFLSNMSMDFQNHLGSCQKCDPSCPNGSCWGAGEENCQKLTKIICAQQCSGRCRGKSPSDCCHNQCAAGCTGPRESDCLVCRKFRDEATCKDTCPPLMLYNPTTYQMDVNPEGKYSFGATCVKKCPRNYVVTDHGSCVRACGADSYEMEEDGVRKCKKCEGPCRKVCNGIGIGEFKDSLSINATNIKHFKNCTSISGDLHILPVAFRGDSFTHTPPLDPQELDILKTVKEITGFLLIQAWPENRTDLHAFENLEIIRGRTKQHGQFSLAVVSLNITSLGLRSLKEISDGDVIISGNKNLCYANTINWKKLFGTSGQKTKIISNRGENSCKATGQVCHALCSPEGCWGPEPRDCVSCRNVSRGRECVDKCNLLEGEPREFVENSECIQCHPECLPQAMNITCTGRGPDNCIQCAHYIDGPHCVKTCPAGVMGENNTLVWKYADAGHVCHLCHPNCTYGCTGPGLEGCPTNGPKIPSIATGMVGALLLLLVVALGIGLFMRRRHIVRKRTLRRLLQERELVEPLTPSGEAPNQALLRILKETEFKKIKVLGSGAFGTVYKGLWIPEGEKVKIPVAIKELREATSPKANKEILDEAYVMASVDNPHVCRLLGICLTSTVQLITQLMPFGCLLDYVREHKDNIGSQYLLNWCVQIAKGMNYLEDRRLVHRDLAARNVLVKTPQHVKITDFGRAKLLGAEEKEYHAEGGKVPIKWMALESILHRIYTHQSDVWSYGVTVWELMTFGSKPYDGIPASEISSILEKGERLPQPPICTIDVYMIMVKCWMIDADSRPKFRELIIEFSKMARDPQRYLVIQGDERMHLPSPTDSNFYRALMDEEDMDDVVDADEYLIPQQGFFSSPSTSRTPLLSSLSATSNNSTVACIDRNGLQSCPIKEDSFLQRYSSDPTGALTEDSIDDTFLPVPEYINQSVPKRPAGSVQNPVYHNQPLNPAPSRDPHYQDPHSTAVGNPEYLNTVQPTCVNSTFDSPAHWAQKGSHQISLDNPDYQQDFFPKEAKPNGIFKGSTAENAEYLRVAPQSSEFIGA
BaF3 (EGFR Del19), sequence (P00533 with tags, fused parts or gaps DEL746-750): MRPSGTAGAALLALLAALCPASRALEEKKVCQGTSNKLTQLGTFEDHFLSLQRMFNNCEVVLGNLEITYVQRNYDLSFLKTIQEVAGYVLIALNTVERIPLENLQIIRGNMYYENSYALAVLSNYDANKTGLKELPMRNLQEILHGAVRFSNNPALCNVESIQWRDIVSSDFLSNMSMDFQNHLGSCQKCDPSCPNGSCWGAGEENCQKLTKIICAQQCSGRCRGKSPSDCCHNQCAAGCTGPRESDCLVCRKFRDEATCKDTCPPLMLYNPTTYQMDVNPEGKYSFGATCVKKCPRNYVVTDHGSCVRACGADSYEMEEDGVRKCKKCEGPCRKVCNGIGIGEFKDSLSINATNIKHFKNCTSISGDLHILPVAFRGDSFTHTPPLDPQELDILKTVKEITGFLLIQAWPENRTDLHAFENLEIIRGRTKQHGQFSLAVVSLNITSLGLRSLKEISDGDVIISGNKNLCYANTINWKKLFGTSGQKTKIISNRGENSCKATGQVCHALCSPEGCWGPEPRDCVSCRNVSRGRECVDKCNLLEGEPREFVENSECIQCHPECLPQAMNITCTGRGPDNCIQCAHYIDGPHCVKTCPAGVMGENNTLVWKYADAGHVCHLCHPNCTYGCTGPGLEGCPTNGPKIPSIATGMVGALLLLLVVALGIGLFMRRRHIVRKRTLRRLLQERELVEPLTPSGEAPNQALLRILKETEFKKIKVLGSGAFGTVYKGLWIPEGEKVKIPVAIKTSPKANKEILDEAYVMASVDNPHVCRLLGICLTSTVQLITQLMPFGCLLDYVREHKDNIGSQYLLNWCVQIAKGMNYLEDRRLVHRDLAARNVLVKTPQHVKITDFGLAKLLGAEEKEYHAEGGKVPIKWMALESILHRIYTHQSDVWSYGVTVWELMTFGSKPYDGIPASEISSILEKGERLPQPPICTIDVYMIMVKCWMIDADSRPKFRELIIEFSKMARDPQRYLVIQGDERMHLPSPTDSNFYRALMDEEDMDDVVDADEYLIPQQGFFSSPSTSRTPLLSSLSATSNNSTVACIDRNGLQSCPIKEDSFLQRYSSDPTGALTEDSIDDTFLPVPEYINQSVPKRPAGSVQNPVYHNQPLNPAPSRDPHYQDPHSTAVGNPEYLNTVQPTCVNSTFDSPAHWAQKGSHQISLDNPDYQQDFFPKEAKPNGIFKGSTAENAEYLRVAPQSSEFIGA

SMILES	GI50 (BaF3 (EGFR Del19))	IC50 (DT)	IC50 (BaF3 (EGFR Del19/C797S))	GI50 (BaF3 (EGFR L858R/C797S))	GI50 (BaF3 (EGFR L858R))	IC50 (LT)	IC50 ([1]; Table 5, 72 h)	IC50 ([2]; Table 5, 72 h)	IC50 (BaF3 (EGFR WT); Table 5, 10 ng/ml EGF)	IC50 (BaF3 patent)	IC50 (A431; Table 5)	DC50 (human EGFR-DTC)	EGFR-DTC Dmax (human EGFR-DTC)	IC50 ([1]; Table 6, 72 h)	DC50 (human EGFR-LTC)	Dmax (human EGFR-LTC)	IC50 ([2]; Table 6, 72 h)	IC50 (BaF3 (EGFR WT); Table 6, 10 ng/ml EGF)	IC50 (A431; Table 6)	also measured
COc1cc(N2CCC(N3CCN(CCC#Cc4cccc5c4CN(C4CCC(=O)NC4=O)C5=O)CC3)CC2)c(C2CC2)cc1Nc1ncc(Cl)c(Nc2ccccc2P(C)(C)=O)n1 (centres unmarked) [Example E13]	6.1 nM	7.7 nM	20.4 nM	128 nM	23.5 nM	16.5 nM	66.5 nM	19.6 nM	> 4000 nM	> 4000 nM	> 4000 nM									
CCc1cc(Nc2ncc(Cl)c(Nc3ccccc3P(C)(C)=O)n2)c(OC)cc1N1CCC(N2Cc3ccc(Oc4cccc5c4CN(C4CCC(=O)NC4=O)C5=O)cc3C2)CC1 (centres unmarked) [Example E120]	1.8 nM	7.8 nM	3.2 nM	33.9 nM	16.6 nM	9.3 nM						7.17 nM	86%	115 nM	13.1 nM	85%	14.7 nM	≥ 2160 nM	≥ 1560 nM	
CCc1cc(Nc2ncc(Cl)c(Nc3ccccc3P(C)(C)=O)n2)c(OC)cc1N1CCC(N2CCN(CCC#Cc3cccc4c3CN(C3CCC(=O)NC3=O)C4=O)CC2)CC1 (single isomer, unassigned) [Example E4]	2.1 nM	5.5 nM	4.8 nM	23 nM	6.7 nM	7.4 nM	37.6 nM	6.6 nM	> 4000 nM	> 4000 nM	2060 nM	2.27 nM	96%		6.26 nM	91%				DC50 (human EGFR-DC): 18.6 nM; EGFR-DC Dmax (human EGFR-DC): 75%
CCc1cc(Nc2ncc(-c3cnn(C)c3)c(Nc3ccccc3P(C)(C)=O)n2)c(OC)cc1N1CCC(N2CCN(CCOc3cccc4c3CN(C3CCC(=O)NC3=O)C4=O)CC2)CC1 (centres unmarked) [Example E158]	0.2 nM	15.3 nM	0.1 nM	1.3 nM	0.6 nM	69.1 nM								2760 nM			33 nM	730 nM	≥ 1200 nM	
COc1cc(N2CCC3(CCN(CCCC#Cc4cccc5c4CN(C4CCC(=O)NC4=O)C5=O)CC3)CC2)c(C)cc1Nc1ncc(Br)c(Nc2ccc3ccccc3c2P(C)(C)=O)n1 (centres unmarked) [Example E12]	7.8 nM	24.8 nM	16.2 nM	106 nM	37.8 nM	36 nM	111 nM	18.3 nM	> 4000 nM	> 4000 nM	> 4000 nM									
CCc1cc(Nc2ncc(Cl)c(Nc3ccccc3P(C)(C)=O)n2)c(OC)cc1N1CCC(N2CCN(CCOc3cccc4c3CN(C3CCC(=O)NC3=O)C4=O)CC2)CC1 (centres unmarked) [Example E95]	0.8 nM	4 nM	1.3 nM	16.9 nM	6.6 nM	3.5 nM						3.02 nM	91%	48.4 nM	2.13 nM	94%	5.37 nM	≥ 1820 nM	1730 nM	DC50 (human EGFR-DC): 10.1 nM; EGFR-DC Dmax (human EGFR-DC): 98%
CCc1cc(Nc2ncc(Cl)c(Nc3ccccc3P(C)(C)=O)n2)c(OC)cc1N1CCC2(CCN(CCCC#Cc3cccc4c3CN(C3CCC(=O)NC3=O)C4=O)CC2)CC1 (centres unmarked) [Example E15]	5.3 nM	13.7 nM	9.1 nM	54.4 nM	20.1 nM	20.7 nM	120 nM	10.6 nM	> 4000 nM	> 4000 nM	> 4000 nM									
CCc1cc(Nc2ncc(Cl)c(Nc3ccccc3P(C)(C)=O)n2)c(OC)cc1N1CCC(N2CCN(CCCCCc3ccc4c(c3F)CN(C3CCC(=O)NC3=O)C4=O)CC2)CC1 (centres unmarked) [Example E20]	1.7 nM	7 nM	2.7 nM	19.4 nM	5.2 nM	10 nM	54.3 nM	5.6 nM	> 4000 nM	> 4000 nM	1270 nM									

Source: patent US20240408216A1, “PROTEIN INHIBITOR OR DEGRADING AGENT, PHARMACEUTICAL COMPOSITION CONTAINING SAME AND PHARMACEUTICAL USE” (JING MEDICINE TECHNOLOGY (SHANGHAI) LTD., priority 2021, published 2024)
